Laboratory results reported in patent US20240124496A1, “BORONIC ACID COMPOUND AND METHOD FOR PRODUCING SAME” (OSAKA UNIVERSITY, priority 2021, published 2024).
One block for each compound: values may come before it.

Tests used:
[1] = molecular target: T1, amino acid transporter (LAT1) (Homo sapiens, UniProt Q01650); assay: ^211At-AAMT intracellular uptake in MIA PaCa-2 cells; assay type: cell-based; details: 30 minutes; for inhibition of ^211At-AAMT intracellular uptake: excess amount (1 mM) added, ^211At-AAMT synthesized by the method of the present invention
T1 construct: endogenous in cells; host or cells: MIA PaCa-2 (human pancreatic cancer cells)
Description: Human pancreatic cancer cells MIA PaCa-2 were seeded in a 24-well culture plate at a concentration of 1×10^5 cells/mL. After 2 days, the medium was removed, the cells were washed with PBS (−), and the medium was replaced with HEPES Buffer (amino acid free). To each well, the ^211At-AAMT synthesized by the method of the present invention or the conventional mercury method was added. In addition, an excess amount (1 mM) of BCH (LAT1 inhibitor) or unlabeled (AMT) was added. After culturing the cells for 30 minutes, the cells were washed with PBS (−), and lysed with 0.1 N NaOH, and the radioactivity of the lysate was measured. The ^211At-AAMT intracellular uptake (radioactivity count/protein amount) was calculated by correcting the radioactivity per protein amount. The results are shown in FIG. 6 (FIG. 6a: the method of the present invention, FIG. 6b: the conventional mercury method). In FIG. 6, CTL is control, BCH is 2-aminobicyclo[2,2,1]heptane-2-carboxylic acid, and AMT is α-methyltyrosine.

HEK293 cells = assay: cell viability after addition of ^211At-AAMT; assay type: cell-based; details: 0.00-5.00 kBq per well, 24 hours, FIG. 7
Description: HEK293 cells were seeded in a 24-well culture plate at a concentration of 1×10^5 cells/mL. After 2 days, the medium was removed, the cells were washed with PBS (−), and the medium was replaced with HEPES Buffer (amino acid free). To each well, 0.00-5.00 kBq of the ^211At-AAMT synthesized by the method of the present invention or the conventional mercury method was added. After culturing the cells for 24 hours, the cell viability was examined. […] Industrial Applicability

[2] = produced by the mercury method; Non-Patent Document 1; cited from earlier work
stability after labeling = assay type: physicochemical; details: crude product solution with ascorbic acid added
Description: 3-(4,4,5,5-Tetramethyl-1,3,2-dioxaboran-2-yl)-α-methyl-L-tyrosine hydrochloride (Bpin-AMT) was dissolved in water to prepare a 1 w/v % aqueous solution. This aqueous solution (0.1 mL) was put in a microtube, and then aqueous [^131I]sodium iodide solution (0.03 mL, 1 MBq, Institute of Isotopes Co., Ltd.) and 0.4 w/v% aqueous N-bromosuccinimide (NBS) solution (0.03 mL) were added thereto, and the mixture was reacted at room temperature for 30 min. Then, to the reaction solution was added 3 w/v% aqueous ascorbic acid solution (0.03 mL) to stop the reaction to give a crude product solution of 3-iodo(^131I)-α-methyl-L-tyrosine (^131I-IAMT).
This crude product solution (1 μL) was analyzed by thin-layer chromatograph method (TLC). The sample was spotted on a thin-layer plate (silica gel G60), and a mixed solvent of acetonitrile/water (2/1) was used as a developing solvent. The thin-layer plate was exposed to an imaging plate for about 15 min, and then analyzed by a bioimage analyzer (Typhoon FLT7000, GE Healthcare, Chicago). 3-Iodo(^131I)-α-methyl-L-tyrosine was detected at Rf 0.72, and the radiochemical yield (RCY) was 86.1%. This compound was stable up to 7 days after labeling.

T1 sequence (Q01650 whole entry): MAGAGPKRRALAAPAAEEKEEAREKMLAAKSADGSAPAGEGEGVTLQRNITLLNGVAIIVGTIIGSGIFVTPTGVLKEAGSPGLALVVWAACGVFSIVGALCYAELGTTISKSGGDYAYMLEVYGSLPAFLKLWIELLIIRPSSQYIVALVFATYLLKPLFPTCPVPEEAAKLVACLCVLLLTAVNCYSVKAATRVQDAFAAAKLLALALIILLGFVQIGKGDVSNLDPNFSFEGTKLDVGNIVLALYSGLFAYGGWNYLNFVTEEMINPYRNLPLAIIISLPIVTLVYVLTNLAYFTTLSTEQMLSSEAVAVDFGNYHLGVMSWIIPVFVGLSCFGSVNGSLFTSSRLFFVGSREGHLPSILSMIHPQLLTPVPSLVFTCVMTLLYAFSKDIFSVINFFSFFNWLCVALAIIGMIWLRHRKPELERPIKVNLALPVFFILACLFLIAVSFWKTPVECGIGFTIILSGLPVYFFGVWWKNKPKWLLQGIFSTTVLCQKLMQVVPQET
T1 sequence (P08195 102-630 partner): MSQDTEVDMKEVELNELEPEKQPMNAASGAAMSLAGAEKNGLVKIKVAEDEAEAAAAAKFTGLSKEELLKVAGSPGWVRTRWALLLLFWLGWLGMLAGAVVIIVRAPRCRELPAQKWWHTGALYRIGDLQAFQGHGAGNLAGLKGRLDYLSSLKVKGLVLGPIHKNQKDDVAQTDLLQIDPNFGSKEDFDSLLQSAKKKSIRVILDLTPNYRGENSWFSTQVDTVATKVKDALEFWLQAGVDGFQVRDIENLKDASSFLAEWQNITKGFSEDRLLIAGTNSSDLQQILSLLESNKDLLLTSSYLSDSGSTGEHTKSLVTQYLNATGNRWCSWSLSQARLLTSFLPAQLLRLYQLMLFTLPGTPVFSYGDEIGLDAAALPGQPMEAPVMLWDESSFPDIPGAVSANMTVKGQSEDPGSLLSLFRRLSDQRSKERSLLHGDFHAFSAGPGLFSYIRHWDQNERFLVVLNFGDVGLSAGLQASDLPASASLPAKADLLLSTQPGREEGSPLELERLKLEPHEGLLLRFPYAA

- inhibition of ^211At-AAMT intracellular uptake [1]: significantly inhibited
Structure (SMILES): NC1(C(=O)O)CC2CCC1C2 (centres unmarked) [BCH, 2-aminobicyclo[2,2,1]heptane-2-carboxylic acid, reference compound]

- inhibition of ^211At-AAMT intracellular uptake [1]: significantly inhibited
Structure (SMILES): C[C@](N)(Cc1ccc(O)cc1)C(=O)O [AMT, α-methyltyrosine, reference compound]

Structure (SMILES): C[C@](N)(Cc1ccc(O)c([211At])c1)C(=O)O [^211At-AAMT, 3-astato (^211At)-α-methyl-L-tyrosine]
- ^211At-AAMT intracellular uptake and its inhibition by BCH and AMT, compared with the method of the present invention ([1]; synthesized by the conventional mercury method, FIG. 6b): consistent
- ^211At-AAMT intracellular uptake (radioactivity count/protein amount) ([1]; synthesized by the method of the present invention, control (CTL), FIG. 6a): strongly taken up
- cell viability, compared with the method of the present invention (HEK293 cells; synthesized by the conventional mercury method): consistent
- cell viability (HEK293 cells; synthesized by the method of the present invention): decreased in a dose-dependent manner
- stability of the produced ^211At-AAMT [2]: unstable

Structure (SMILES): C[C@](N)(Cc1ccc(O)c([131I])c1)C(=O)O [3-Iodo(^131I)-α-methyl-L-tyrosine, 3-iodo(^131I)-α-methyl-L-tyrosine]
- time stable after labeling (stability after labeling): up to 7 days
